This test deals with T1, pS935-LRRK2 (Homo sapiens, UniProt Q5S007).
T1 construct: fresh PBMCs from healthy volunteer donors; endogenous in cells; host or cells: fresh and cryopreserved PBMCs from healthy volunteer donors
The test can be described thus: pS935-LRRK2 ELISA on freshly isolated PBMCs from healthy volunteers. The test is classed as cell-based. The conditions noted are these: increasing concentrations, 1 hour (FIG. 3C). The protocol:
Phosphorylation of LRRK2 at the Ser935 residue by ELISA was assessed. For each sample, the signal corresponding to pS935-LRRK2 was normalized to its corresponding value of total LRRK2 (in ng/ml). Increasing amounts of recombinant human full-length LRRK2 was bound to parallel ELISA plates using the c41-2 clone for capture, and detected using total (N241A; for normalization) or phosphorylated (pS935-LRRK2, UDD2) antibodies (FIG. 3A). […] Freshly isolated PBMCs from healthy volunteers were treated with increasing concentrations of the kinase inhibitor PF-475 for 1 hour, and subjected to pS935-LRRK2 ELISA (FIG. 3C). […] In contrast, in PBMC extracts from carriers of the G2019S mutation, with and without PD, there was a non-significant trend towards lower levels of pS935-LRRK2 compared to healthy controls (FIG. 3E). The values of all G2019S carriers are pooled for comparison against healthy controls (FIG. 3F). Levels of pS935-LRRK2 and various clinical parameters were compared (FIG. 3G). In iPD patients, there was no correlation between pS935-LRRK2 and the motor function scale UPDRS-III (not shown); however, performance on the cognitive function test, MoCA, was negatively correlated with pS935-LRRK2 levels in iPD patients (FIG. 3G; right panel) and healthy controls (FIG. 3G; center panel).
For orientation: An ELISA detects its analyte on a solid surface through an enzyme-linked reagent.

T1 sequence (Q5S007 whole entry): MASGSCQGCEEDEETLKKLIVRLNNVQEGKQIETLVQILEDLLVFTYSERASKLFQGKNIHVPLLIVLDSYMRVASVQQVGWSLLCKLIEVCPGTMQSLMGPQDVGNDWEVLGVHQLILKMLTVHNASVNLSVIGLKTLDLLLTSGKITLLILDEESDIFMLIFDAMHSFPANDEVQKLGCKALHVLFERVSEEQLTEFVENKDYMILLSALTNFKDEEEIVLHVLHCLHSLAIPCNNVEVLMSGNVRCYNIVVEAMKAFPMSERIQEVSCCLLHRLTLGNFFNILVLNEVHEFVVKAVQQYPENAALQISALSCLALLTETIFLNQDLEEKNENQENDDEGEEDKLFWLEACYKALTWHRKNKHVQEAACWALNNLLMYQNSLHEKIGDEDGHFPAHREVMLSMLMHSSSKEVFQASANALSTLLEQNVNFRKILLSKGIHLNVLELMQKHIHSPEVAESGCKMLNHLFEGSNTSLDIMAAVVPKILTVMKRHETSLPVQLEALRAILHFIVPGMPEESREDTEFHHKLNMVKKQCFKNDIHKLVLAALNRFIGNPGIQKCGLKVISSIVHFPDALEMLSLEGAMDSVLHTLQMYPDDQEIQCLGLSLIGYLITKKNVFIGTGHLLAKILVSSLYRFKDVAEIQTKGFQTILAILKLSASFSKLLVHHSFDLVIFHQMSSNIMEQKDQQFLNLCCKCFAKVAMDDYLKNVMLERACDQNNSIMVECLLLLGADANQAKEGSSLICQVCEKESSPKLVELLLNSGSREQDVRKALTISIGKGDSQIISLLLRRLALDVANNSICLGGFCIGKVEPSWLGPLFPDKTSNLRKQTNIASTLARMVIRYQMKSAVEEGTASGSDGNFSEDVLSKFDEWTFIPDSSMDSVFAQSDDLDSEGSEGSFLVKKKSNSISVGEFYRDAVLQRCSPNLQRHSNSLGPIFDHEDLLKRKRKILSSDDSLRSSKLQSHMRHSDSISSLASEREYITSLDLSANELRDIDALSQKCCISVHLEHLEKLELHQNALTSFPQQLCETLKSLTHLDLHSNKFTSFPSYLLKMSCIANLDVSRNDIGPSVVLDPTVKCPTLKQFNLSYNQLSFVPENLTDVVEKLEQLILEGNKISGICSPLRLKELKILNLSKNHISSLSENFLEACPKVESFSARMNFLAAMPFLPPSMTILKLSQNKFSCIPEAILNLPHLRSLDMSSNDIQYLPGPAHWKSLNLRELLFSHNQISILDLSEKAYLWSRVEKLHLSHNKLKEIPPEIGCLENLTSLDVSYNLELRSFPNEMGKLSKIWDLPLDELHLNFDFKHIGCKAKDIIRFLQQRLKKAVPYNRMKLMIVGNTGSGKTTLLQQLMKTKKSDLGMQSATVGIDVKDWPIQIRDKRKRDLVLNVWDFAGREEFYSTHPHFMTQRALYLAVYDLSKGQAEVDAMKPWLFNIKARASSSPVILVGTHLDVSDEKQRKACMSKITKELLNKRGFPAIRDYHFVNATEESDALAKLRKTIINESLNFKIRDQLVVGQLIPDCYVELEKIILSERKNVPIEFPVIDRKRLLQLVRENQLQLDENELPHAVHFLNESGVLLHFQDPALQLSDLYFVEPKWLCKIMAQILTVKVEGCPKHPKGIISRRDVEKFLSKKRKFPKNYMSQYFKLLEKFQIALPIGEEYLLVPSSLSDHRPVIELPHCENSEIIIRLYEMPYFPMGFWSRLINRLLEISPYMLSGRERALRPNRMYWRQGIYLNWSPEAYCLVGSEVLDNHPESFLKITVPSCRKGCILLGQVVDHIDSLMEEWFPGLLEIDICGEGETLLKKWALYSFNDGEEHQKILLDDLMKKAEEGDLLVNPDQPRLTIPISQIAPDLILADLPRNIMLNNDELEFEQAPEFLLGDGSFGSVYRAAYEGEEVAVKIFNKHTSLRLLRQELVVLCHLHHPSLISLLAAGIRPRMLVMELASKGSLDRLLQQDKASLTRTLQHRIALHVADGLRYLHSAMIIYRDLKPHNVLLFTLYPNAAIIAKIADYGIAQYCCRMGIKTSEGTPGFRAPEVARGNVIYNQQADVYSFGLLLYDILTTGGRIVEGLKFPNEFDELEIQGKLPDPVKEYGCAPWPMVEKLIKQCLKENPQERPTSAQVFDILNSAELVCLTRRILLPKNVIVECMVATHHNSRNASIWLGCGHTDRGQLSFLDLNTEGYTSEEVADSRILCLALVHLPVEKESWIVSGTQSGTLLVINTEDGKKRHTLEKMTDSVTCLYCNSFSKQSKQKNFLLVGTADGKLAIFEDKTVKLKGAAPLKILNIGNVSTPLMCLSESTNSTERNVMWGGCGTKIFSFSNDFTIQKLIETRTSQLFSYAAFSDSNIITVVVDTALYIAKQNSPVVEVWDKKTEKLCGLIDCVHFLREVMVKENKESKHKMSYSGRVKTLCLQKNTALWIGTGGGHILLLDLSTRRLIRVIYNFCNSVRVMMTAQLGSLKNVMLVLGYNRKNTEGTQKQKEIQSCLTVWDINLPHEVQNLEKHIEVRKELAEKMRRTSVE

Take `N#Cc1cccc(-c2c[nH]c3ncnc(N4CCOCC4)c23)c1` [PF-475]: the “phosphorylated LRRK2 (pS935-LRRK2) level” value is “significant dose-dependent loss”.
